Assay results: patent US8802597B2, “Herbicidal pyrimidines” (E I du Pont de Nemours and Company, priority 2003, dated 2014)
Where two headings read alike, the source gives them in different places.

Assays:
Test in all cases: Test C pre/postemergence
Format in all cases: in vivo
corn (Zea mays) = settings: Zea mays, pre-emergence, Preemergence
How it was run: (§1)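 Applications: preemergence onto seeded soil and postemergence onto 1- to 4-leaf seedlings, compound carried in non-phytotoxic solvent plus surfactant. Kept in greenhouse 12 to 14 days. Scored visually relative to untreated controls, 0 (no effect) to 100 (complete control).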

[1] = system: pigweed (Amaranthus retroflexus); settings: Amaranthus retroflexus; for pest or weed control at 62 g/ha: 62 g ai/ha; for pest or weed control at 125 g/ha: 125 g ai/ha; for pest or weed control at 250 g/ha: 250 g ai/ha; for pest or weed control at 500 g/ha: 500 g ai/ha
How it was run: as §1

kochia (Kochia scoparia) = settings: Bassia scoparia; for pest or weed control at 62 g/ha: 62 g ai/ha; for pest or weed control at 125 g/ha: 125 g ai/ha; for pest or weed control at 250 g/ha: 250 g ai/ha; for pest or weed control at 500 g/ha: 500 g ai/ha
How it was run: as §1

[2] = system: eastern black nightshade (Solanum ptycanthum); settings: Solanum, pre-emergence, Preemergence, read-out: Plant response rating, Nightshade
How it was run: as §1

[3] = system: Surinam grass (Brachiaria decumbens); settings: Urochloa decumbens; for pest or weed control at 125 g/ha: 125 g ai/ha; for pest or weed control at 500 g/ha: 500 g ai/ha; for pest or weed control at 62 g/ha: 62 g ai/ha; for pest or weed control at 250 g/ha: 250 g ai/ha
How it was run: as §1

[4] = system: common (oilseed) sunflower (Helianthus annuus); settings: Helianthus annuus, pre-emergence, Preemergence, read-out: Plant response rating, Sunflower
How it was run: as §1

[5] = system: common ragweed (Ambrosia elatior); settings: Ambrosia artemisiifolia; for pest or weed control at 62 g/ha: 62 g ai/ha; for pest or weed control at 125 g/ha: 125 g ai/ha; for pest or weed control at 250 g/ha: 250 g ai/ha; for pest or weed control at 500 g/ha: 500 g ai/ha
How it was run: as §1

[6] = post-emergence, Postemergence, scale 0 to 100 (0 no effect, 100 complete control), read-out: Pigweed plant response rating
[7] = post-emergence, Postemergence, scale 0 to 100, read-out: Plant response rating, Pigweed
[8] = pre-emergence, Preemergence, scale 0 to 100, read-out: Plant response rating, Pigweed
[9] = post-emergence, Postemergence, scale 0 to 100 (0 no effect, 100 complete control), read-out: Kochia plant response rating
[10] = post-emergence, Postemergence, scale 0 to 100, read-out: Plant response rating, Kochia
[11] = pre-emergence, Preemergence, scale 0 to 100, read-out: Plant response rating, Kochia
[12] = 62 g ai/ha, scale 0 to 100, 0 no effect, 100 complete control
[13] = post-emergence, Postemergence, scale 0 to 100 (0 no effect, 100 complete control), read-out: Surinam Grass plant response rating
[14] = post-emergence, Postemergence, scale 0 to 100, read-out: Plant response rating, Surinam Grass
[15] = pre-emergence, Preemergence, scale 0 to 100, read-out: Plant response rating, Surinam Grass
[16] = post-emergence, Postemergence, scale 0 to 100 (0 no effect, 100 complete control), read-out: Ragweed plant response rating
[17] = post-emergence, Postemergence, scale 0 to 100, read-out: Plant response rating, Ragweed
[18] = pre-emergence, Preemergence, scale 0 to 100, read-out: Plant response rating, Ragweed

In the case of `CCOC(=O)c1nc(C2CC2)nc(N)c1Br` [Compound 1, ethyl 6-amino-5-bromo-2-cyclopropyl-4-pyrimidinecarboxylate], the Corn plant response rating (crop injury, 0 = no effect, 100 = complete kill) at 62 g/ha (corn (Zea mays); 62 g ai/ha, scale 0 to 100, 0 no effect, 100 complete control, read-out: Plant response rating, Corn) is reported as 0%, the Corn plant response rating (crop injury, 0 = no effect, 100 = complete kill) at 125 g/ha (corn (Zea mays); 125 g ai/ha, scale 0 to 100, read-out: Plant response rating, Corn) is reported as 0% and the Corn plant response rating (crop injury, 0 = no effect, 100 = complete kill) at 250 g/ha (corn (Zea mays); 250 g ai/ha, scale 0 to 100) is reported as 50%. It also gave a Corn plant response rating (crop injury, 0 = no effect, 100 = complete kill) at 500 g/ha (corn (Zea mays); 500 g ai/ha, scale 0 to 100) of 70%, a pest or weed control at 62 g/ha [1, 6] of 90% and a pest or weed control at 125 g/ha [1, 6] of 100%. For the same compound, the pest or weed control at 250 g/ha [1, 7] was 100%, the pest or weed control at 500 g/ha [1, 7] was 100% and the pest or weed control at 62 g/ha ([1]; pre-emergence, Preemergence, scale 0 to 100, 0 no effect, 100 complete control, read-out: Plant response rating, Pigweed) was 90%. It also gave a pest or weed control at 125 g/ha [1, 8] of 100%, a pest or weed control at 250 g/ha [1, 8] of 100% and a pest or weed control at 500 g/ha [1, 8] of 100%. It also gave a pest or weed control at 62 g/ha (kochia (Kochia scoparia); [9]) of 100%, a pest or weed control at 125 g/ha (kochia (Kochia scoparia); [9]) of 100% and a pest or weed control at 250 g/ha (kochia (Kochia scoparia); [10]) of 100%. It also gave a pest or weed control at 500 g/ha (kochia (Kochia scoparia); [10]) of 100%, a pest or weed control at 62 g/ha (kochia (Kochia scoparia); pre-emergence, Preemergence, scale 0 to 100, 0 no effect, 100 complete control, read-out: Plant response rating, Kochia) of 95% and a pest or weed control at 125 g/ha (kochia (Kochia scoparia); [11]) of 100%. The pest or weed control at 250 g/ha (kochia (Kochia scoparia); [11]) was 100%, the pest or weed control at 500 g/ha (kochia (Kochia scoparia); [11]) was 100% and the pest or weed control at 62 g/ha [2, 12] was 100%. For the same compound, the pest or weed control at 125 g/ha ([2]; 125 g ai/ha, scale 0 to 100) was 100%, the pest or weed control at 250 g/ha ([2]; 250 g ai/ha, scale 0 to 100) was 100% and the pest or weed control at 500 g/ha ([2]; 500 g ai/ha, scale 0 to 100) was 100%. The pest or weed control at 125 g/ha [3, 13] was 90%, the pest or weed control at 500 g/ha [3, 14] was 95% and the pest or weed control at 62 g/ha [3, 13] was 90%. For the same compound, the pest or weed control at 250 g/ha [3, 14] was 90%, the pest or weed control at 62 g/ha ([3]; pre-emergence, Preemergence, scale 0 to 100, 0 no effect, 100 complete control, read-out: Plant response rating, Surinam Grass) was 0% and the pest or weed control at 125 g/ha [3, 15] was 35%. The pest or weed control at 250 g/ha [3, 15] was 90%, the pest or weed control at 500 g/ha [3, 15] was 90% and the pest or weed control at 62 g/ha [4, 12] was 80%. It also gave a pest or weed control at 125 g/ha ([4]; 125 g ai/ha, scale 0 to 100) of 100%, a pest or weed control at 250 g/ha ([4]; 250 g ai/ha, scale 0 to 100) of 100% and a pest or weed control at 500 g/ha ([4]; 500 g ai/ha, scale 0 to 100) of 100%. The pest or weed control at 62 g/ha [5, 16] was 100%, the pest or weed control at 125 g/ha [5, 16] was 100% and the pest or weed control at 250 g/ha [5, 17] was 100%. It also gave a pest or weed control at 500 g/ha [5, 17] of 100%, a pest or weed control at 62 g/ha ([5]; pre-emergence, Preemergence, scale 0 to 100, 0 no effect, 100 complete control, read-out: Plant response rating, Ragweed) of 95% and a pest or weed control at 125 g/ha [5, 18] of 100%. For the same compound, the pest or weed control at 250 g/ha [5, 18] was 100% and the pest or weed control at 500 g/ha [5, 18] was 100%.
